The values below come from a melting point compilation (Tetko et al.; mined from patent text by program, amines drawn as free bases though some values may be those of a salt).

Regarding `O=C(O)COc1c(-c2cccc(Cl)c2)cc(C(=O)NCCCCCCCCOCc2ccc(Cl)cc2)cc1-c1cccc(Cl)c1`, the melting point was in the range of 128 to 131 °C.

`CN1CCN(c2cccc3c2C[C@H](NC(=O)c2ccccc2)CC3)CC1` had a melting point of 195 to 196 °C.

The compound `CCc1cccc(CC)c1NC(=O)NCC(c1ccccc1)c1ccccc1` registered a melting point of 200 to 201 °C.

`NC(=O)NCc1ccc2c(c1)OCO2` gave a melting point of 183 to 184 °C.

`CCOC(=O)c1cnc2c(c1NCCN(C)C)NC(=O)CN2` returned a melting point of 183 to 185 °C.

Turning to `CC(N)=NC(=Nc1ccccc1)N1CCOCC1`, the melting point is 146 to 148 °C.

As for `COc1ccc(Nc2ccc(OCc3ccccc3)cc2)c(C(=O)O)c1`, the melting point was in the range of 167 to 168 °C.

As to `O=C(O)Cc1nn(C(c2ccccn2)c2ncno2)c(=O)c2ccccc12` (stereo not drawn), the melting point was 196 to 200 °C.

Turning to `C[C@H]1CN(c2c(F)cc3c(=O)c(C(=O)O)cn4c3c2CCN4C)C[C@H]1NC(=O)CNC(=O)OC(C)(C)C` (relative stereo), the melting point was 142 to 145 °C.

`C#Cc1ccc(NC=C(C(=O)NCCC)C(=O)c2ccccc2Cl)cc1` had a melting point of 95 to 96 °C.

The compound `CCOC(=O)C(=Cc1ccc(N(C)C)cc1[N+](=O)[O-])C(=O)OCC` returned a melting point of 101 to 102 °C.

`CCC(Oc1ccc2c(-c3ccc(Cl)cc3)noc2c1)C(=O)O` (stereo not drawn) returned a melting point of 144 °C.

Compound `C=CCn1cc(-c2ccccc2)c(=O)c(-c2cccc(C(F)(F)F)c2)c1` yielded a melting point of 107 to 109 °C.

In turn, `CC(C)(C)c1ccc(OCC(O)CN(CCO)CCO)cc1` (stereo not drawn) returned a melting point of 45 to 47 °C.

Consider `CN(CC(C)(C)[N+](=O)[O-])c1ccc(N(C)CC(C)(C)[N+](=O)[O-])cc1`, for which the melting point lay in the range of 119 to 121 °C.

Take `CCOC(=O)c1cnc(Cl)cc1Cl`: the melting point lay in the range of 32 to 32.5 °C.

In turn, `O=C(O)C=C1SC(Nc2c(Cl)cccc2Cl)=NC1=O` registered a melting point of more than 230 °C.

Consider `O=C(Oc1ccccc1)c1ccc2c(c1)S(=O)(=O)NCN2C1CC1`, for which the melting point fell in the range of 160 to 162 °C.

Compound `O=c1c2ccc(Cl)cc2[nH]c2c(O)nn(-c3ccc(OC(F)(F)F)cc3)c(=O)c12` displayed a melting point of 320 to 322 °C.

In the case of `COC(=O)NCCCCC(=O)OC[C@@H]1CC(c2ccc(-c3ccc(N4C[C@H](Cn5ccnn5)OC4=O)cc3F)cn2)=NO1`, the melting point was 90 °C.

Turning to `COC(=O)c1ccc(C(=O)N(C)C)cc1`, the melting point amounted to 107 °C.

`O=c1ccc(C(F)(F)F)cn1-c1ccc(NCCCl)cc1Cl` came in with a melting point of 160 to 162 °C.

On to `COC(=O)C(c1ccc(-c2ccccc2F)cc1)S(C)=O` (stereo not drawn), for which the melting point lay within 79 to 80 °C.

`CCOC(=O)c1ccc(Sc2cc3c(cc2C)C(C)(C)CCC3(C)C)cc1O` showed a melting point of 74 to 75 °C.

As to `CC1=C(C(=O)OC(C)C)C(c2cccc([N+](=O)[O-])c2)N(C(N)=O)C(=O)N1` (stereo not drawn), the melting point was 160 to 161 °C.

Turning to `COC(=O)c1nc2ccc(CO)cc2cc1C`, the melting point was found to be 84.2 °C.

`COC(C)(C)C(=O)C(Oc1ccc(I)cc1)n1cncn1` (stereo not drawn) displayed a melting point of 81.5 to 82.5 °C.

As to `Nc1c(N(CC(=O)O)Cc2ccccc2)c(=O)c1=O`, the melting point fell in the range of 177 to 179 °C.

Compound `Cc1oc(Cc2ccccc2)c(C(=O)c2cc(C(C)C)c(O)c(C(C)C)c2)c1C` displayed a melting point of 138 °C.

For `Cc1cc(C)cc(C(=O)N2CC[C@H](NCc3ccnc4ccccc34)C[C@H]2Cc2ccc(Cl)cc2)c1` (relative stereo), the melting point was 148 to 149 °C.

In turn, `CC(=O)N(O)Cc1ccc(C(O)C#Cc2cccs2)cc1` (stereo not drawn) registered a melting point of 125 to 126 °C.

Consider `Oc1ccccc1[C@@H]1C[C@H]2C=C(c3c[nH]c(-c4ccc(F)cc4)c3-c3ccncc3)CCN2C1`, for which the melting point lay within 195 to 196 °C.

Compound `O=C(O)c1cc(OCc2ccccc2)nn1-c1ccccc1` displayed a melting point of 163 to 164 °C.

Regarding `CCCCCCCC(=O)Nc1ccc(O)c(C(=O)O)c1`, the melting point fell in the range of 200 to 204 °C.

In the case of `O=[N+]([O-])c1cc(-c2nnn[nH]2)ccc1OCc1ccccc1`, the melting point is 178 to 180 °C.

For the compound `N#Cc1nsc2ccc([N+](=O)[O-])cc12`, the melting point lay within 168 to 170 °C.

As to `CC(=O)Nc1ccc(-n2ccnc2S(=O)Cc2ccccc2N2CCOCC2)nc1` (stereo not drawn), the melting point lay within 207 to 209 °C.

Compound `COC(=O)[C@@](C#N)(Cc1ccccn1)[C@H](c1ccccc1OC)c1cccc2ccccc12` (relative stereo) came in with a melting point of 194 to 196 °C.

With `COC(=O)COc1ccc(Nc2cc(Nc3ccc(F)c(Cl)c3)ncn2)cc1`, the melting point was in the range of 191 to 193 °C.

With `Cn1c(=O)nc(NCCCN2CCN(C(c3ccccc3)c3ccccc3)CC2)c2ccccc21`, the melting point was 121 to 124 °C.

Take `CCCNC(=O)C(C)(C)Oc1ccc(-c2ccc(N3CCCCC3)cc2)cc1`: the melting point fell in the range of 132 to 134 °C.

In turn, `C=CCNc1nc(NCC=C)c2scc(-c3ccccc3)c2n1` came in with a melting point of 98 to 100 °C.

In turn, `CC(O)C1CCC(CNC(=O)OC(C)(C)C)CC1` (stereo not drawn) came in with a melting point of 75 to 76 °C.

Take `CCOC(=O)c1ccc(N2CCOCC2)cc1`: the melting point was in the range of 82 to 83 °C.

As to `CCOc1ccc2c(c1)C(C)(c1ccccc1Cl)C(=O)N2S(=O)(=O)c1ccc(C(=O)NC(C)(C)CF)cc1` (stereo not drawn), the melting point is 182 °C.

For `Cc1ccc2c(c1)c(C1=C(Br)C(=O)N(C)C1=O)cn2C`, the melting point fell in the range of 107 to 110 °C.

In the case of `COc1ccc(C2CSc3ccccc3NC2=O)cc1Br` (stereo not drawn), the melting point is 200 °C.

As for `N[C@@H](C[C@@H](CC#Cc1ccccc1)C(=O)O)C(=O)O`, the melting point is 164 to 166 °C.

`S=C(Oc1ccccc1)c1ccccc1` came in with a melting point of 56 °C.

On to `CC(=O)N[C@H]1CC[C@H](CCN2CCN(c3nc(C)cc4occc34)CC2)CC1`, for which the melting point was found to be 208 °C.

For `O=[N+]([O-])c1ccc(S(=O)(=O)NCCc2ccccc2)c([N+](=O)[O-])c1`, the melting point was in the range of 127 to 128 °C.

For `O=S(=O)(c1ccccc1)c1c[nH]c2ccc(Br)cc12`, the melting point was in the range of 176 to 178 °C.

For `C=CCc1cc(C)c2c(c1O)C(C)(C)C(=O)N2Cc1ccccc1`, the melting point lay within 161 to 162 °C.

Regarding `COc1ccc2cc(C#CC(C)N(O)C(N)=O)ccc2c1` (stereo not drawn), the melting point lay within 181 to 183 °C.

For `COC(=O)c1cccc2[nH]c3cc4c(c(OC)c3c12)CCCC4`, the melting point is 194 to 196 °C.

The compound `CC(C)(Cc1cc2nc(Cl)ccc2n1S(=O)(=O)c1ccccc1)C(=O)O` had a melting point of 208 to 211 °C.

The compound `CCOC(=O)c1c(Nc2ccncc2)c2ccc(Cl)cc2n1CC(=O)N(CC)CC` displayed a melting point of 212 to 214 °C.

For the compound `CCOC(=O)c1cc2nc(C)nc-2[nH]c1C(=O)OCC`, the melting point is 164 to 165 °C.

Compound `O=C(O)c1cccc(NC(=O)C(CS)Cc2ccc(F)cc2)c1` (stereo not drawn) came in with a melting point of 180 to 182 °C.

`COC(=O)c1c(C)nc(CC(C)C)c(CN)c1-c1ccc(C)cc1` displayed a melting point of 56 to 57 °C.

On to `O=C(O)c1cccc(-c2cccc(OCc3ccc(Cl)cc3Cl)n2)c1`, for which the melting point lay in the range of 186 to 187 °C.

The compound `CC(=O)N1C(=O)OC[C@@H]1Cc1ccccc1` came in with a melting point of 106 °C.

For the compound `CC(=O)Nc1ccc2oc(C(=O)O)cc2c1`, the melting point was more than 300 °C.

Consider `CCOC(=O)CCC(=O)[C@H](Cc1ccccc1)NC(=O)OC(C)(C)C`, for which the melting point lay in the range of 56 to 58 °C.

With `CCOC(=O)c1ccc(NC(=O)C(C)C)c([N+](=O)[O-])c1`, the melting point fell in the range of 74 to 76 °C.

`Cc1c(NC(=O)CC(C)(C)C)c(C)c2c(c1-c1cncnc1)OCC2c1ccc(C(C)C)cc1` (stereo not drawn) yielded a melting point of 167 to 169 °C.

On to `CN1CCC(n2ccc(-c3ccc(F)cc3)c2-c2ccncc2)CC1`, for which the melting point was in the range of 187 to 189 °C.

For the compound `CC1(C)C2CC[C@]1(C)C(=O)C(C(=O)Nc1ccc(C(F)(F)F)cc1)C2=O` (stereo partly drawn), the melting point was 78 to 81 °C.

Consider `CCOC(=O)[C@H](COCc1ccccc1)NC(=O)C(C)(C)NC(=O)[C@@H](SC(C)=O)C(C)C`, for which the melting point lay within 55 to 57 °C.

In turn, `O=C1NC(=O)C(CCCOc2ccc(F)cc2)S1` (stereo not drawn) yielded a melting point of 119 to 121 °C.

As to `Cc1nc2c(s1)-c1nc(Nc3ccc(N4CCOCC4)cc3)ncc1CC2`, the melting point lay within 236 to 237 °C.

`CCC(C)(CC)c1nnc(NC(=O)c2c(OC)cccc2OC)[nH]1` returned a melting point of 279 to 280 °C.

On to `CCC(C)C(NC(=O)OC)C(=O)NC(Cc1ccccc1)C(O)CN(Cc1ccc(-c2cncs2)cc1)NC(=O)C(NC(=O)OC)C(C)C` (stereo not drawn), for which the melting point lay within 202 to 204 °C.

For the compound `Oc1cccc2c1OCO2`, the melting point lay in the range of 62 to 63 °C.

`CC(C)(C)OC(=O)N1CCCC(c2ccc3c(c2)C2(CO3)C(=O)N(Cc3ccc(C(F)(F)F)o3)c3ccccc32)C1` (stereo not drawn) came in with a melting point of 59 to 61 °C.

Take `NC(=O)c1csc(-c2cc3c(Oc4ccc(Cl)cc4)cncc3s2)n1`: the melting point lay in the range of 215 to 218 °C.

The compound `CC(C)(C)OC(=O)COc1coc(CN2CCCC2)cc1=O` showed a melting point of 93 to 94 °C.

As for `O=C(O)c1ccc(-c2nc(-c3ccc(C(F)(F)F)cc3)co2)cc1`, the melting point lay within 258 to 259 °C.

Regarding `CN(C=O)CC1(N2CCCCC2)CCCCC1`, the melting point turned out to be 94 °C.

As to `COc1cc(Nc2c(C#N)cnc3cc(-c4cncc(CN5CCOCC5)c4)ccc23)c(Cl)cc1Cl`, the melting point was 141 to 143 °C.

For the compound `CC12CCCC=C1CCC1C2CCC2(C)C(OC3CCCCO3)CCC12` (stereo not drawn), the melting point was 92 to 96 °C.

`Cc1ccc(NC(=O)c2ccc(CN3CCN(C)CC3)c(C(F)(F)F)c2)cc1Nc1nc(-c2ccncc2)cs1` yielded a melting point of 226 to 227 °C.

`O=S1CCON=C1c1ccc(Cl)s1` (stereo not drawn) registered a melting point of 102 °C.

On to `Cc1nc(C(F)(F)F)ccc1/C=C/C(=O)Nc1ccc2[nH]ccc2c1`, for which the melting point came to 231 °C.

Take `CN1CC=C(c2cn(-c3cccnc3)c3ccc([N+](=O)[O-])cc23)CC1`: the melting point lay in the range of 175 to 177 °C.

In the case of `O=C(O)CCCc1ccc(C(=O)CCCc2ccccc2)cc1`, the melting point fell in the range of 111 to 112 °C.

The compound `O=C1NC(C(=O)O)CCCCCCCCCCC1CS` (stereo not drawn) registered a melting point of 170 to 172 °C.

For `CC(C)(CO)C(O)(Cn1cncn1)c1ccc(F)cc1F` (single isomer, unassigned; (+)), the melting point lay within 116 to 118 °C.
